Assay [1] concerns the target T1, TMEM16A (Homo sapiens, UniProt Q5XXA6, DEL476-501).
T1 construct: expressed in transfected cells
T1 sequence (Q5XXA6 with tags, fused parts or gaps isoform Q5XXA6-5 DEL539-564): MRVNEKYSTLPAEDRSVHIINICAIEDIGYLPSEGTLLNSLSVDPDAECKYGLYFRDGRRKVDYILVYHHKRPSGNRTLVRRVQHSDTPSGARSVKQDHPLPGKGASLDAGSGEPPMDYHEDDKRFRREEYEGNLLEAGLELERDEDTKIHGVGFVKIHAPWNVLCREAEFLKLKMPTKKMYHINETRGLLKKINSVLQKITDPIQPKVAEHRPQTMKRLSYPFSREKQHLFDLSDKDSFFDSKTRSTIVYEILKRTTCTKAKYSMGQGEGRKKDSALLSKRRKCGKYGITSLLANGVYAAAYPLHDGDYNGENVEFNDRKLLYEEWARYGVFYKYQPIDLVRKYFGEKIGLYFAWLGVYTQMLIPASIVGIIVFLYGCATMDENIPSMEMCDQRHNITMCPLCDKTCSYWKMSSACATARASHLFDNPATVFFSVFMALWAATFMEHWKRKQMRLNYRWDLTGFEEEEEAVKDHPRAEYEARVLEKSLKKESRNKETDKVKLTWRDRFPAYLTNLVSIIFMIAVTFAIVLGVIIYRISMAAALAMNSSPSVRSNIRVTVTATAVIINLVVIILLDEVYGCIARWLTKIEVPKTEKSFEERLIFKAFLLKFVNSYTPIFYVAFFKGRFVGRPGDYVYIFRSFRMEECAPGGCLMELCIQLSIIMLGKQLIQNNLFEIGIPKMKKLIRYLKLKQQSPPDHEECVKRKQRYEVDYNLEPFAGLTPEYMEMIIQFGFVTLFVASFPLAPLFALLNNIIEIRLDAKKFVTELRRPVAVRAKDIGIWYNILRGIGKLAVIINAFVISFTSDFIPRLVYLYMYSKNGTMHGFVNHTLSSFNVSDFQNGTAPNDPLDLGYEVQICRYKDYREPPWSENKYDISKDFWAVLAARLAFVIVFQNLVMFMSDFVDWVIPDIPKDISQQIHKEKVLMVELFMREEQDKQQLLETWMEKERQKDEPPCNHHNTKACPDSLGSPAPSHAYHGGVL
The assay is described as follows: Fluorescence plate reader assay of TMEM16A-mediated I^− influx (YFP halide sensor). It counts as cell-based. Conditions: for EC50 (μM) / EC50: fluorescence plate reader assay; for TMEM16A conductance, F class SAR: synthesized F class analogs; for EC50: read-out: EC50. Here is the method: (§1) FRT cells were stably transfected with human TMEM16A (TMEM16A(abc), cDNA provided by Dr. Luis Galietta, Gaslini Institute, Genoa, Italy) and the halide sensor YFP-H148Q/1152L/F46L. Cells were plated in 96-well black-walled microplates (Corning Inc., Corning, N.Y.) at a density of 20,000 cells per well in Coon's modified F12 medium supplemented with 5% fetal calf serum, 2 mM L-glutamine, 100 U/mL penicillin and 100 μg/mL streptomycin. The human submandibular cell line A253 (ATCC HTB 41) was cultured in complete McCoy's 5A medium supplemented with 10% fetal bovine serum, 100 U/mL penicillin and 100 μg/mL streptomycin.
TMEM16A activators were identified from screening of ˜110,000 synthetic drug-like compounds, purified natural products and approved/investigational drugs. The cell-based screen employs FRT cells coexpressing human TMEM16A and the I^−-sensing yellow fluorescent protein YFP-H148Q/1152L/F46L. FRT cells were chosen because of their low basal I^− and Cl^− transport, rapid growth on uncoated plastic, strong stable expression of transfected proteins, and formation of tight junctions for measurements of transepithelial short-circuit current (Ma et al., supra).
High-throughput screening was done using an automated screening platform (Beckman) equipped with FluoStar fluorescence plate readers (BMG Lab Technologies, Durham, N.C.) as described (Ma et al., supra). Each well of a 96-well plate was washed 3 times with PBS (200 μL/wash), leaving 50 μL PBS. Test compounds (0.5 μL) were added to each well at […]. After 10 min, 96-well plates were transferred to a plate reader for fluorescence assay. Each well was assayed individually for TMEM16A-mediated I^− influx by recording fluorescence continuously (400 ms per point) for 2 s (baseline), then 50 μL of a 140 mM I^− solution was added. The initial rate of I^− influx was computed from fluorescence data by non-linear regression.
As diagrammed in FIG. 1A, test compounds at 25 μM final concentration were added 10 min prior to I^− addition. The 10 min incubation was chosen to allow for compound transport into cytoplasm and to minimize false positives from compounds that elevate cytoplasmic Ca^2+ transiently. Fluorescence from individual wells of 96-well plates was measured just prior to and for 6 s after I^− addition for computation of initial I^− influx rate.

The target of assay [2] is T1, TMEM16A. The assay is described as follows: Apical membrane current in TMEM16A-expressing FRT cells. It counts as cell-based. Conditions: basolateral membrane permeabilized, Cl^− gradient; ATP 100 μM. Here is the method:
as §1
Snapwell inserts containing TMEM16A-expressing FRT, HBE, CF HBE or HTG cells were mounted in Ussing chambers (Physiologic Instruments, San Diego, Calif.). Amiloride, CFTRinh-172, UTP, ATP, T16Ainh-A01 and TMEM16A activators were added to the apical solution and an equal volume of vehicle was added at the same time to the basolateral solution. Symmetrical HCO3^−-buffered solutions were used for HBE, CF HBE and HTG cells. For FRT cells, the hemichambers were filled with a half-Cl^− solution (apical) and the HCO3^−-buffered solution (basolateral), and the basolateral membrane was permeabilized with 250 μg/mL amphotericin B, as described (Namkung et al. (2010), supra). Cells were bathed for a 10 min stabilization period and aerated with 95% O2/5% CO2 at 37° C. or room temperature. Apical membrane current (for FRT cells) and short-circuit current were measured using an EVC4000 Multi-Channel V/I Clamp (World Precision Instruments, Sarasota, Fla.) and recorded using PowerLab/8sp (AD Instruments, Castle Hill, Australia).
The current increase was sustained for >10 min (FIG. 2B, inset). […] Data are also shown for a second Fact compound (Fact9, see Table 1) in FIG. 9.

Assay [3] has as its system mouse ileal smooth muscle. The assay is described as follows: Intestinal smooth muscle contraction, ex vivo mouse ileal segments. Conditions: Eact 10 μM, carbachol 1 μM following atropine. Here is the method: FIG. 8A-C. Intestinal smooth muscle contraction. FIG. 8A. Representative traces from mouse ileal segments showing effects of T16Ainh-A01 (10 μM), carbachol (CCh, 1 μM) and Eact (10 μM). FIG. 8B. Effect of CCh (1 μM) and Eact (10 μM) following atropine (1 μM). FIG. 8C. Summary of contraction frequency (left), and resting and maximum tone (right) (mean±S.E., n=4-7, * P<0.05).
Wild type CD1 mice (age 8-10 weeks) were killed by avertin overdose (200 mg/kg). The ileum removed and washed with ice-cold HCO3^−-buffered solution. The ends of the ileal segments were tied with silk thread and connected to a force transducer. Beal segments were equilibrated for 60 min with a resting force of ˜1 mN, with changes of the bathing solution every 15 min. Tension was monitored continuously with a fixed-range precision force transducer (TSD, 125 C; Biopac, Goleta, Calif.) connected to a differential amplifier (DA 100B; Biopac). Data were recorded using MP100, Biopac digital acquisition system and analyzed using Acknowledge 3.5.7 software.
TMEM16A in expressed in the interstitial cells of Cajal, the pacemaker cells that control smooth muscle contraction dynamics in stomach and intestine (Huang et al., supra; Gomez-Pinilla et al. (2009) Am. J. Physiol. Gastrointest. Liver Physiol. 296, G1370-1381). The effect of Eact on mouse ileal smooth muscle contraction was investigated using an ex vivo intestinal preparation. […] Without wishing to be bound by theory, the constitutive TMEM16A activity in this ex vivo preparation could obscure Eact activity. To reveal Eact effects, atropine was first added to inhibit basal contractions. […] FIG. 8C summarizes data on contraction frequency, resting tone and maximal tone.

Structures are written as SMILES. Read-outs that look alike come from different tables or passages of the source.

Consider `O=C(Nc1cccc(Br)c1)c1cccc(-n2cnnn2)c1` [3-bromophenyl], for which, at TMEM16A [1] (Fact analogs), the “EC50 (μM)” value is “inactive”.

For `CN(C)c1ccc(NC(=O)c2cccc(-n3cnnn3)c2)cc1` [4-(N,N-dimethylamino)phenyl], the “EC50 (μM)” value at TMEM16A [1] (Fact analogs) is “inactive”. On TMEM16A [1], the “TMEM16A conductance, F class SAR” value is “low activity”.

Usually EC50 stands for the concentration giving half of the maximal effect. Turning to `COc1ccc(CC(=O)N(Cc2ccncc2)c2nc(-c3ccccc3)cs2)c(OC)c1OC` [(pyrid-4-yl)methyl / phenyl, N-(4-pyridylmethyl)-N-(4-phenyl-2-thiazolyl)-2,3,4-trimethoxybenzeneacetamide], the EC50 on TMEM16A [1] (Eact analogs) worked out at 2 µM.

`Nc1ncnc2c1ncn2[C@@H]1O[C@H](COP(=O)(O)OP(=O)(O)OP(=O)(O)O)[C@@H](O)[C@H]1O` [ATP, reference compound]: at TMEM16A [2], the “Cl^− current (apical membrane current)” value was “large but transient elevation in Cl^− current”.

As to `CN1[C@@H]2CC[C@H]1C[C@@H](OC(=O)C(CO)c1ccccc1)C2` (stereo partly drawn) [atropine], the “contraction after atropine (1 μM)” value in assay [3] was “prevented the carbachol effect”.

Consider `O=C(Nc1ccc([N+](=O)[O-])cc1)c1cccc(-n2cnnn2)c1` [4-nitrophenyl], for which the “EC50 (μM)” value on TMEM16A [1] (Fact analogs) is “inactive”. The “TMEM16A conductance, F class SAR” value on TMEM16A [1] was “low activity”.

On to `COc1ccc(-c2csc(N(Cc3ccccc3)C(=O)c3cc(OC)c(OC)c(OC)c3)n2)cc1` [benzyl / 4-methoxyphenyl], for which the EC50 on TMEM16A [1] (Eact analogs) came to 4 µM.

For the compound `O=C(Nc1ccc(Cl)cc1)c1cccc(-n2cnnn2)c1` [4-chlorophenyl], the “EC50 (μM)” value on TMEM16A [1] (Fact analogs) is “inactive”. At TMEM16A [1], the “TMEM16A conductance, F class SAR” value is given as “low activity”.

For the compound `O=C(Nc1ccccc1Br)c1cccc(-n2cnnn2)c1` [2-bromophenyl], on TMEM16A [1] (Fact analogs), the “EC50 (μM)” value is “inactive”.

For `O=C(Nc1ccc(Br)c(C(F)(F)F)c1)c1cccc(-n2cnnn2)c1` [4-bromo-3-trifluoromethylphenyl], the concentration for a half-maximal effect (EC50) at TMEM16A [1] (Fact analogs) came to 55 µM.

For `CC(C)c1ccc(NC(=O)c2cccc(-n3cnnn3)c2)cc1` [Fact9, N-(4-isopropylphenyl)-3-(1H-tetrazol-1-yl)benzamide], at TMEM16A [1] (Fact analogs), the EC50 worked out at 11 µM. The “Cl^− current (apical membrane current)” value on TMEM16A [2] is reported as “stimulated TMEM16A Cl^− current”.

The record behind these values is patent publication US9790218B2, “Small molecule activators of calcium-activated chloride channels and methods of use” (The Regents of the University of California, priority 2011, dated 2017).
